According to US20150150893A1, “ANDROGRAPHOLIDE ANALOGS AND THEIR USE FOR MEDICATION” (LIAONING LIFENG SCIENTIFIC & TECHNOLOGY DEVELOPMENT COMPANY …, priority 2012, published 2015):

Legend:
Assay type in all cases: cell-based
[1] = system: Japanese encepahalitis virus; conditions: read-out: In-Vitro Antiviral Screening Result (EC50) C
SARS coronavirus = test: microbe, parasite or virus in culture; conditions: Severe acute respiratory syndrome coronavirus, read-out: In-Vitro Antiviral Screening Result (EC50) F
[2] = system: Venezuelan equine encephalitis virus; test: microbe, parasite or virus in culture; conditions: read-out: In-Vitro Antiviral Screening Result (EC50) G
many virus = test: Antivirus studies in vitro, summary over the virus panel; conditions: read-out: EC50 against many virus
Method: compounds were diluted to 20 mg/mL in DMSO then prepared in for log 10 dilutions of 100 μg/mL down to 0.1 μg/mL) in MEM solution with 50 μg/mL gentamicin and 2% FBS. Each dilution was added to 5 wells of a 96-well plate with 80-100% confluent cells. Three wells of each dilution were infected with virus, and two wells remained uninfected as toxicity controls. The multiplicity of infection (MOI) was as low as possible to achieve CPE within 3-5 days of incubation. A known active compound was tested in parallel as a control. After untreated virus control wells reached maximum cytopathic effect (CPE), each well was scored microscopically. Plates were then stained with neutral red dye for approximately 2 hours, then supernatant dye was removed from the wells and the incorporated dye was extracted in 50:50 Sorensen citrate buffer/ethanol, then the optical density was read on a spectrophotometer.

Rift Valley fever virus = test: microbe, parasite or virus in culture; conditions: read-out: In-Vitro Antiviral Screening Result (EC50) E
Influenza A virus H1N1 = test: microbe, parasite or virus in culture; conditions: H1N1, read-out: In-Vitro Antiviral Screening Result (EC50) H

SMILES	EC50 [1] [mg/L]	EC50 (SARS coronavirus) [mg/L]	EC50 [2] [mg/L]	EC50 (many virus) [mg/L]	EC50 (Rift Valley fever virus) [mg/L]	EC50 (Influenza A virus H1N1) [mg/L]
C=C1C(NC(C)C(=O)NC2=NCC=N2)CC2[C@](C)(CC[C@@H](O)[C@@]2(C)CO)C1/C=C/C1=CC(=C\c2ccc(N(C)C)cc2)/OC1=O (stereo partly drawn) [Example 188]	< 100	< 50	< 100	< 50	< 100	> 100
C=C1CCC2[C@](C)(CC[C@@H](O)[C@@]2(C)CO)C1/C=C/C1=CC(=C\C2=CN3CC(=O)N(C)C3C=C2)/OC1=O (stereo partly drawn) [Example 63, 11,12-dedihydro-14-deoxy-(E)-15-((1-methyl-2-oxo-1,2,3,8a-tetrahydroimidazo[1,2-a]pyridin-6-yl)methylene)andrographolide]	< 100	< 50	< 100	< 50	< 50	< 50
CC(NC1CC2[C@](C)(CC[C@@H](O)[C@@]2(C)CO)C(/C=C/C2=CC(=C\c3cnc(N4CCN(C)CC4)nc3)/OC2=O)C12CO2)C(=O)NC1=NCC=N1 (stereo partly drawn) [Example 23, 7-((2-((4H-imidazol-2-yl)amino)-1-oxopropan-2-yl)amino)-11,12-dedihydro-14-deoxy-(E)-15-((2-(4-methylpiperazin-1-yl)pyrimidin-5-yl)methylene)-8,17-epoxyandrographolide]	< 50	< 50	< 50	< 50	< 50	> 100
Cn1cc(/C=C2C=C(/C=C/C3C4(CCC5[C@]3(C)CC[C@@H](O)[C@@]5(C)CO)CO4)C(=O)O\2)c2cnc(N)nc21 (stereo partly drawn) [Example 59, 11,12-dedihydro-14-deoxy-(E)-15-((2-amino-7-methyl-7H-pyrrolo[2,3-d]pyrimidin-5-yl)methylene)-8,17-epoxyandrographolide]	> 100	< 50	> 100	< 50	< 50	< 100
C[C@]12CC[C@@H](O)[C@@](C)(CO)C1CCC1(CO1)C2/C=C/C1=CC(=C\c2cnc(N)[nH]c2=O)/OC1=O (stereo partly drawn) [Example 38, 11,12-dedihydro-14-deoxy-15-(2-amino-5-oxygen-3H-pyrimidine-5-ylmethylene)-8,17-epoxyandrographolide]	< 100	< 50	< 100	< 50	> 100	< 100
CCN(CC)c1ccc(/C=C2C=C(/C=C/C3C4(CCC5[C@]3(C)CC[C@@H](O)[C@@]5(C)CO)CO4)C(=O)O\2)c(O)c1 (stereo partly drawn) [Example 66]	< 50	< 100	< 50	< 50	< 100	< 100
COc1cc(/C=C2C=C(/C=C/C3C4(CCC5[C@]3(C)CC[C@@H](O)[C@@]5(C)CO)CO4)C(=O)O\2)cc([N+](=O)[O-])c1O (stereo partly drawn) [Example 41, 11,12-dedihydro-14-deoxy-(E)-15-(4-hydroxy-3-methoxy-5-nitrobenzylidene)-8,17-epoxyandrographolide]	> 100	< 100	> 100	< 50	< 50	< 100
CN(C)c1ccc(/C=C2C=C(/C=C/C3C4(CCC5[C@]3(C)CC[C@@H](O)[C@@]5(C)CO)CO4)C(=O)O\2)c(O)c1 (stereo partly drawn) [Example 78]	< 100	< 50	< 100	< 50	< 100	> 100
CN1CCN(c2ccc(/C=C3C=C(/C=C/C4C5(CCC6[C@]4(C)CC[C@@H](O)[C@@]6(C)CO)CO5)C(=O)O\3)cc2)CC1 (stereo partly drawn) [Example 71, 11,12-dedihydro-14-deoxy-(E)-15-(4-(4-methylpiperazin-1-yl)benzylidene)-8,17-epoxyandrographolide]	< 50	< 100	< 50	< 50	> 100	< 100
